system: CDC42BPAA; assay: DSF Tm panel; type: binding; details: 10 μM compound

| Compound | ΔTm CDC42BPAA |
| --- | --- |
| COc1cc(CNC(=O)Nc2ccc3cc2OCCOCCNc2ccn4ncc-3c4n2)ccc1F [compound 33] | 0,1 °C |
| C[C@H](NC(=O)Nc1ccc2cc1OCCOCCNc1ccn3ncc-2c3n1)c1ccccc1 [compound 34] | 0,1 °C |

target: T1, EPHA2 (EPHA2A) (Homo sapiens, UniProt P29317); assay: DSF Tm panel; type: binding; details: 10 μM compound
T1 construct: purchased in-house DSF kinase panel (SGC-style construct names; the trailing letter is the construct ID)
T1 sequence (P29317 596-900): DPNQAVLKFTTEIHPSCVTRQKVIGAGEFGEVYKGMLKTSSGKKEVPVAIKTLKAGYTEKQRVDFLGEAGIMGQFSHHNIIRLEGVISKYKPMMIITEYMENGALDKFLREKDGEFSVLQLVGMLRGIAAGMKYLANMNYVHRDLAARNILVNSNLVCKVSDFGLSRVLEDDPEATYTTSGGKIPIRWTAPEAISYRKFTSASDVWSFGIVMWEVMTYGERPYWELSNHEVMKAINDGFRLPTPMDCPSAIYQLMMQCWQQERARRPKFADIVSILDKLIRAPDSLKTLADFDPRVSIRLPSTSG

| Compound | ΔTm at 10 µM [°C] |
| --- | --- |
| COc1cc(CNC(=O)Nc2ccc3cc2OCCOCCNc2ccn4ncc-3c4n2)ccc1F [compound 33] | 0.5 |
| C[C@H](NC(=O)Nc1ccc2cc1OCCOCCNc1ccn3ncc-2c3n1)c1ccccc1 [compound 34] | 0.3 |

target: T2, NEK1A (Homo sapiens, UniProt Q96PY6); assay: DSF Tm panel; type: binding; details: 10 μM compound
T2 construct: purchased in-house DSF kinase panel (SGC-style construct names; the trailing letter is the construct ID)
T2 sequence (Q96PY6 1-328): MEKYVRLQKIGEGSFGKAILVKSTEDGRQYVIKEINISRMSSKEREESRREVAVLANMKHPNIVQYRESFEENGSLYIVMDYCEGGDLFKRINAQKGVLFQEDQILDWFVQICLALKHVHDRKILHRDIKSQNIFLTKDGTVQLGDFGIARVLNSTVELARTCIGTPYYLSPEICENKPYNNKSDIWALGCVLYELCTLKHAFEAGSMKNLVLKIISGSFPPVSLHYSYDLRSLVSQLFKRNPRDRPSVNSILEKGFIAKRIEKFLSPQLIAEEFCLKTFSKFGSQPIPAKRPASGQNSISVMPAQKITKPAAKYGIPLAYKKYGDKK

| Compound | ΔTm at 10 µM [°C] |
| --- | --- |
| COc1cc(CNC(=O)Nc2ccc3cc2OCCOCCNc2ccn4ncc-3c4n2)ccc1F [compound 33] | -0.1 |
| C[C@H](NC(=O)Nc1ccc2cc1OCCOCCNc1ccn3ncc-2c3n1)c1ccccc1 [compound 34] | -0.4 |

system: RPS6KA1A; assay: DSF Tm panel; type: binding; details: 10 μM compound

| Compound | ΔTm RPS6KA1A |
| --- | --- |
| COc1cc(CNC(=O)Nc2ccc3cc2OCCOCCNc2ccn4ncc-3c4n2)ccc1F [compound 33] | 0,5 °C |
| C[C@H](NC(=O)Nc1ccc2cc1OCCOCCNc1ccn3ncc-2c3n1)c1ccccc1 [compound 34] | 0,4 °C |

target: T3, STK4 (STK4A) (Homo sapiens, UniProt Q13043); assay: DSF Tm panel; type: binding; details: 10 μM compound
T3 construct: purchased in-house DSF kinase panel (SGC-style construct names; the trailing letter is the construct ID)
T3 sequence (Q13043 1-311): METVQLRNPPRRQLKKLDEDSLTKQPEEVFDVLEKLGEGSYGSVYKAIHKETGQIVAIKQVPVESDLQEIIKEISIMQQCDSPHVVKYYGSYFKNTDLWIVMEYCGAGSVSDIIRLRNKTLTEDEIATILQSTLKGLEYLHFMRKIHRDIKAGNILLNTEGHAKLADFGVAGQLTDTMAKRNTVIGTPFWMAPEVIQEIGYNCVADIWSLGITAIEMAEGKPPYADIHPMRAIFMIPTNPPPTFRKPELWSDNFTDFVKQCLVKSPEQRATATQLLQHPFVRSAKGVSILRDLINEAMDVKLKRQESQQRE

| Compound | ΔTm at 10 µM [°C] |
| --- | --- |
| COc1cc(CNC(=O)Nc2ccc3cc2OCCOCCNc2ccn4ncc-3c4n2)ccc1F [compound 33] | 3.8 |
| C[C@H](NC(=O)Nc1ccc2cc1OCCOCCNc1ccn3ncc-2c3n1)c1ccccc1 [compound 34] | 2.7 |

target: T4, VRK1A (Homo sapiens, UniProt Q99986); assay: DSF Tm panel; type: binding; details: 10 μM compound
T4 construct: purchased in-house DSF kinase panel (SGC-style construct names; the trailing letter is the construct ID)
T4 sequence (Q99986 1-396): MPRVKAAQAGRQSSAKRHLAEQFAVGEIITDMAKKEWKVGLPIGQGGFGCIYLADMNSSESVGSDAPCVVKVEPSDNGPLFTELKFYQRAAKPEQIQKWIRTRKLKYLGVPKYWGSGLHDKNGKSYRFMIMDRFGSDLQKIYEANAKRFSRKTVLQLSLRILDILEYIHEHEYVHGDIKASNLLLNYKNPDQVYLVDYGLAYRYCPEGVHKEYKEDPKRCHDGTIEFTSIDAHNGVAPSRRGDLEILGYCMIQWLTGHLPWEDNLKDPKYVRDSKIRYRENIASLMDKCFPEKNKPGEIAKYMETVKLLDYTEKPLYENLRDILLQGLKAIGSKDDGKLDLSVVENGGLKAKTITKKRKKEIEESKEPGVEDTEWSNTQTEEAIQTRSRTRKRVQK

| Compound | ΔTm at 10 µM [°C] |
| --- | --- |
| COc1cc(CNC(=O)Nc2ccc3cc2OCCOCCNc2ccn4ncc-3c4n2)ccc1F [compound 33] | 0.3 |
| C[C@H](NC(=O)Nc1ccc2cc1OCCOCCNc1ccn3ncc-2c3n1)c1ccccc1 [compound 34] | 0 |

target: T5, STK3 (STK3A) (Homo sapiens, UniProt Q13188); assay: DSF Tm panel; type: binding; details: 10 μM compound
T5 construct: purchased in-house DSF kinase panel (SGC-style construct names; the trailing letter is the construct ID)
T5 sequence (Q13188 16-313): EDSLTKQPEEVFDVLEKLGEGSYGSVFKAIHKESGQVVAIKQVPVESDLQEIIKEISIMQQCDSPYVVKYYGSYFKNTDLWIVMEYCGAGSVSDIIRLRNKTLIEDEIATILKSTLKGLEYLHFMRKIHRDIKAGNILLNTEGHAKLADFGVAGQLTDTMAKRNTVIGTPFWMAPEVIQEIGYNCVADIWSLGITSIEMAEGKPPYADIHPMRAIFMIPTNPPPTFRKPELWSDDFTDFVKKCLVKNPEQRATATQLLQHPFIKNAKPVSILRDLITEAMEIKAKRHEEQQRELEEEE

| Compound | ΔTm at 10 µM [°C] |
| --- | --- |
| COc1cc(CNC(=O)Nc2ccc3cc2OCCOCCNc2ccn4ncc-3c4n2)ccc1F [compound 33] | 3.9 |
| C[C@H](NC(=O)Nc1ccc2cc1OCCOCCNc1ccn3ncc-2c3n1)c1ccccc1 [compound 34] | 3.6 |

target: T6, SLK (Homo sapiens, UniProt Q9H2G2); assay: PhosphoSens in vitro activity assay; type: biochemical; details: ATP 150 μM

| Compound | IC50 [µM] |
| --- | --- |
| COc1cc(CNC(=O)Nc2ccc3cc2OCCOCCNc2ccn4ncc-3c4n2)ccc1F [compound 33] | > 20 |
| C[C@H](NC(=O)Nc1ccc2cc1OCCOCCNc1ccn3ncc-2c3n1)c1ccccc1 [compound 34] | > 20 |

target: T7, MELKA (Homo sapiens, UniProt Q14680); assay: DSF Tm panel; type: binding; details: 10 μM compound
T7 construct: purchased in-house DSF kinase panel (SGC-style construct names; the trailing letter is the construct ID)
T7 sequence (Q14680 1-340): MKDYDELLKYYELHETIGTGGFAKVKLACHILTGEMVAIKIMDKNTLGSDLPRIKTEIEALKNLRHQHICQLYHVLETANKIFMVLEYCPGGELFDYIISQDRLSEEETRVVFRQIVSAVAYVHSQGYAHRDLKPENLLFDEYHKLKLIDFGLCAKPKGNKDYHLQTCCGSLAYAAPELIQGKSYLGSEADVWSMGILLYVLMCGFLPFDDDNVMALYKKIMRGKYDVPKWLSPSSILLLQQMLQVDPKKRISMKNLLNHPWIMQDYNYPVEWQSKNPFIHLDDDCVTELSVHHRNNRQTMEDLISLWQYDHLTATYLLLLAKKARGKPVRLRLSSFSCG

| Compound | ΔTm at 10 µM [°C] |
| --- | --- |
| COc1cc(CNC(=O)Nc2ccc3cc2OCCOCCNc2ccn4ncc-3c4n2)ccc1F [compound 33] | 2.1 |
| C[C@H](NC(=O)Nc1ccc2cc1OCCOCCNc1ccn3ncc-2c3n1)c1ccccc1 [compound 34] | 1.3 |

target: T8, AAK1 (AAK1A) (Homo sapiens, UniProt Q2M2I8); assay: DSF Tm panel; type: binding; details: 10 μM compound
T8 construct: purchased in-house DSF kinase panel (SGC-style construct names; the trailing letter is the construct ID)
T8 sequence (Q2M2I8 27-365): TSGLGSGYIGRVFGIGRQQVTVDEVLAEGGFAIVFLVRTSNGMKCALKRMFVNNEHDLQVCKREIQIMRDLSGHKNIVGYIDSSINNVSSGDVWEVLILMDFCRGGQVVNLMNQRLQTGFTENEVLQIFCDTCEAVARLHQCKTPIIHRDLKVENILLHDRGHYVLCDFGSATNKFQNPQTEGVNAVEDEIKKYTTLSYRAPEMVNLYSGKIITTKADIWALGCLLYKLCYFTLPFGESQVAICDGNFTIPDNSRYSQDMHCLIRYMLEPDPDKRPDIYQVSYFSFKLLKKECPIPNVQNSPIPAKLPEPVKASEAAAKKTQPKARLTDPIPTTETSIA

| Compound | ΔTm at 10 µM [°C] |
| --- | --- |
| COc1cc(CNC(=O)Nc2ccc3cc2OCCOCCNc2ccn4ncc-3c4n2)ccc1F [compound 33] | 6.4 |
| C[C@H](NC(=O)Nc1ccc2cc1OCCOCCNc1ccn3ncc-2c3n1)c1ccccc1 [compound 34] | 5.9 |

target: T6, SLK; assay: NanoBRET target engagement assay; type: cell-based; set-up: has a greater impact on the full-length protein than on the kinase domains; host or cells: HEK293T (ATCC CRL-3216); details: HEK293T cells

| Compound | EC50 [µM] |
| --- | --- |
| COc1cc(CNC(=O)Nc2ccc3cc2OCCOCCNc2ccn4ncc-3c4n2)ccc1F [compound 33] | > 50 |
| C[C@H](NC(=O)Nc1ccc2cc1OCCOCCNc1ccn3ncc-2c3n1)c1ccccc1 [compound 34] | > 50 |

target: T9, BMP2KA (Homo sapiens, UniProt Q9NSY1); assay: DSF Tm panel; type: binding; details: 10 μM compound
T9 construct: purchased in-house DSF kinase panel (SGC-style construct names; the trailing letter is the construct ID)
T9 sequence (Q9NSY1 38-345): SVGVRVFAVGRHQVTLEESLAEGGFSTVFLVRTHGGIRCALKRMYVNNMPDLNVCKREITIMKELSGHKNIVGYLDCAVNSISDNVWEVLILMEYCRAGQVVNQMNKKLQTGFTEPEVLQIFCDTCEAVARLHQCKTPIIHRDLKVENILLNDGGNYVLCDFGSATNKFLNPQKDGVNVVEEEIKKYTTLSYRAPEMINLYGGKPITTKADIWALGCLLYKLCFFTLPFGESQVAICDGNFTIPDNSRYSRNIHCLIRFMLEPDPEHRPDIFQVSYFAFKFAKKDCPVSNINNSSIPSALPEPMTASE

| Compound | ΔTm at 10 µM [°C] |
| --- | --- |
| COc1cc(CNC(=O)Nc2ccc3cc2OCCOCCNc2ccn4ncc-3c4n2)ccc1F [compound 33] | 10.2 |
| C[C@H](NC(=O)Nc1ccc2cc1OCCOCCNc1ccn3ncc-2c3n1)c1ccccc1 [compound 34] | 9.1 |

target: T10, DYRK1AA (Homo sapiens, UniProt Q13627); assay: DSF Tm panel; type: binding; details: 10 μM compound
T10 construct: purchased in-house DSF kinase panel (SGC-style construct names; the trailing letter is the construct ID)

| Compound | ΔTm at 10 µM [°C] |
| --- | --- |
| COc1cc(CNC(=O)Nc2ccc3cc2OCCOCCNc2ccn4ncc-3c4n2)ccc1F [compound 33] | 0.9 |
| C[C@H](NC(=O)Nc1ccc2cc1OCCOCCNc1ccn3ncc-2c3n1)c1ccccc1 [compound 34] | -0.1 |

target: T11, MAPK13A (Homo sapiens, UniProt O15264); assay: DSF Tm panel; type: binding; details: 10 μM compound
T11 construct: purchased in-house DSF kinase panel (SGC-style construct names; the trailing letter is the construct ID)
T11 sequence (O15264 1-365): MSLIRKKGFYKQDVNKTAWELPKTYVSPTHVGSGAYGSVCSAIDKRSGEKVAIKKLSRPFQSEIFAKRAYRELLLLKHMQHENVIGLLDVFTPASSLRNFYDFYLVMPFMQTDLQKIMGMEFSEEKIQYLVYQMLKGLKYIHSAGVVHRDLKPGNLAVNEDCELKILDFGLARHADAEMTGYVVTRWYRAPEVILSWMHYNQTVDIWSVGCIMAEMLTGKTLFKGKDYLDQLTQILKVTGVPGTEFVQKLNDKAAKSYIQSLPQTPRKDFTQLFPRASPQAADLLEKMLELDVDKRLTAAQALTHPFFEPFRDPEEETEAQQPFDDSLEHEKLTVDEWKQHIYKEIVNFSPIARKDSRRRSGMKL

| Compound | ΔTm at 10 µM [°C] |
| --- | --- |
| COc1cc(CNC(=O)Nc2ccc3cc2OCCOCCNc2ccn4ncc-3c4n2)ccc1F [compound 33] | -0.3 |
| C[C@H](NC(=O)Nc1ccc2cc1OCCOCCNc1ccn3ncc-2c3n1)c1ccccc1 [compound 34] | -0.3 |

target: T12, CDKL1A (Homo sapiens, UniProt Q00532); assay: DSF Tm panel; type: binding; details: 10 μM compound
T12 construct: purchased in-house DSF kinase panel (SGC-style construct names; the trailing letter is the construct ID)
T12 sequence (Q00532 1-303): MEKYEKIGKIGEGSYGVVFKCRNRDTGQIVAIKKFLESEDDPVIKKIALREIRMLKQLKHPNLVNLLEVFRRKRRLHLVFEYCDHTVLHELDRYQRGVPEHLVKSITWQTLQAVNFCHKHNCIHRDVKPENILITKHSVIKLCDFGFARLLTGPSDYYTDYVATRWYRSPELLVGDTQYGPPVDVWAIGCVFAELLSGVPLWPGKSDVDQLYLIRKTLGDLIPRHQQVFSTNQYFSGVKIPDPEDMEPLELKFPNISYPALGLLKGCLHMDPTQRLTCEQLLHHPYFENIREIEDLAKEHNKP

| Compound | ΔTm at 10 µM [°C] |
| --- | --- |
| COc1cc(CNC(=O)Nc2ccc3cc2OCCOCCNc2ccn4ncc-3c4n2)ccc1F [compound 33] | 0.5 |
| C[C@H](NC(=O)Nc1ccc2cc1OCCOCCNc1ccn3ncc-2c3n1)c1ccccc1 [compound 34] | 0.2 |
